This is an account of results in BindingDB's records for doi:10.1016/j.ejmech.2008.07.020 (Jadavpur University, 2009).

SMILES strings stand for the structures.

In the assay the target is Reverse transcriptase/RNaseH (Human immunodeficiency virus 1, UniProt Q72547). Briefly: Inhibition of HIV1 reverse transcriptase.
By IC50 is commonly meant the concentration at which inhibition is half-maximal. The low end stands for greater potency in that assay, the high end for weaker potency in that assay. The compound `CCCC1CN(CCC)Cc2cccc3[nH]c(=O)n1c23` (stereo not drawn) yielded an IC50 of 182 µM.
Under `C[C@H]1Cn2c(=O)[nH]c3ccc(N)c(c32)CN1CC1CC1` stands 849 µM; under `CCCCN1Cc2cccc3[nH]c(=O)n(c23)C[C@@H]1C`, 100 µM.
